According to patent US20260055375A1, “CULTURE METHOD” (Babraham Institute, priority 2023, published 2026):

How the values were obtained:
[1] = system: epithelial endometrial cells; test: Morphometric analysis of surface epithelial cells in hormone-stimulated endometrium assembloid; type: cell-based, human
Description: (§1) Hormone stimulation scheme aimed to recapitulate the mid-secretory phase of human endometrial cycle when receptive phenotype optimal for embryo implantation, known as window of implantation, is acquired. For this purpose, β-oestradiol (E2) stimulation was started in upper and lower compartments for 4 days to simulate the proliferative phase of human endometrial cycle. A total volume of 300 μL of organoid media supplemented by 2% charcoal stripped FBS (Sigma Aldrich, F6765) and 10 nM of β-oestradiol (E2, Sigma E4389) was added to the top compartment of the transwell culture system. A total volume of 1 mL of hEnSC medium supplemented by 2% charcoal stripped FBS (Sigma Aldrich, F6765) and 10 nM of β-oestradiol (E2, Sigma E4389) was added to the lower compartment. Media were changed each 2 days. After 4 days, upper and lower compartments were stimulated with full hormone mixture containing E2, progesterone (P4) and 8-bromoadenosine 3′,5′-cyclic monophosphate (CAMP) for 8 days. A total volume of 300 μL of organoid media supplemented by 2% charcoal stripped FBS (Sigma Aldrich, F6765), 10 nM of E2 (Sigma E4389), 1 μM of P4 (Sigma P7556) and 1 μM of cAMP (Sigma, B7880) was added to the top compartment of the transwell culture system. A total volume of 1 mL of hEnSC medium supplemented by 2% charcoal stripped FBS (Sigma Aldrich, F6765) and […] (Sigma E4389), 1 μM of P4 (Sigma P7556) and […] (Sigma, B7880) was added to the lower compartment. Media were changed each 2 days.
(§2) Morphometric analyses were performed on stromal and epithelial compartments on proliferative phase (after 4 days of E2 stimulation) and secretory phase (after 8 days of stimulation with E2, P4 and cAMP).
Cell segmentation and cell morphometric analyses were performed from confocal microscopy images of stromal and epithelial compartment. Vimentin and cytokeratin-7 were used as stromal and epithelial markers, respectively, to determine stromal and epithelial compartment. Phalloidin signal was used to perform cell segmentation of stromal and epithelial compartments. Cell segmentation was done in an intermediate field of the whole Z-stack, choosing a relatively flat area to maximize the accuracy of the segmentation using Fiji (https://imagej.net/software/fiji/).
Epithelial cells were segmented manually using polygon selection tool from Fiji. Cell contour was drawn with multiple points to accurately fit perimeter of each cell segmented. Fit spline option (“Edit”>“Selection”>“Fit spline”) was used in all cases to smooth cell contour and maximize the match of manual cell segmentation with cell perimeter. Each Region Of Interest (ROI) corresponding to each epithelial cell segmented was added to ROI manager (“Analyse”>“Tools” >“ROI manager”).
Once acquired all ROI, the following measurements were set (“Analyse”>“Set Measurements”): area (μm^2), perimeter (μm), and shape descriptors roundness, circularity, aspect ratio, and solidity. Roundness ((4·area)/(π·major axis^2)) ranges from 0 to 1 indicating elongated or circle-like shape. Circularity (4π·area/perimeter^2) ranges from 0 to 1 and correlates with shape roughness. Aspect ratio is defined as the ratio between major and minor axis of the best fit ellipse. Solidity, defined as a ratio between area and convex area, ranges from 0 to 1, describing a concave or convex shape.

[2] = system: endometrial stromal cells; test: Morphometric analysis of stromal cells in hormone-stimulated endometrium assembloid; type: cell-based, human
Description: as §1, §2
Cell segmentation and cell morphometric analyses were performed from confocal microscopy images of stromal and epithelial compartment. […]
Stromal length (μm) and width (μm) were acquired for each cell using the line tool from Fiji. […] In this case, only line measurements (in μm) corresponding to length and width of each stromal cell were recorded to calculate length/width ratio. […]

[3] = stromal cells, proliferative (E2 4 days) vs secretory (E2, P4 and cAMP 8 days)

Structure (SMILES): C[C@]12CC[C@@H]3c4ccc(O)cc4CC[C@H]3[C@@H]1CC[C@@H]2O [E2, β-oestradiol]
- surface area (median) ([1]; proliferative (E2 4 days) vs secretory (E2, P4 and cAMP 8 days)): 75.67 μm^2
- aspect ratio (AR) (median) ([1]; proliferative vs secretory): 1.584
- cell perimeters (median) ([1]; proliferative vs secretory): 34.61 μm
- cell roundness (median) ([1]; proliferative vs secretory): 0.6315
- circularity (median) ([1]; proliferative vs secretory): 0.7920
- solidity (median) ([1]; proliferative vs secretory): 0.9820
- length/width ratio (median) ([2]; stromal cells in 3D, proliferative phase = E2 4 days, secretory phase = E2, P4 and cAMP 8 days): 9.14
- cell length (median) [2, 3]: 105.4 μm
- cell width (median) [2, 3]: 11.39 μm
